# Measurements from paper PMC7522982, “PKIS deep dive yields a chemical starting point for dark kinases and a cell active BRSK2 inhibitor” (Scientific Reports, 2020).
# What was measured:
# EPHB6 = biological target: T1, EPHB6 (Homo sapiens, UniProt O15197); experiment: DiscoverX scanMAX competition binding assay
# T1 construct: purchased Eurofins DiscoverX Corporation
# Excerpt: (§1) Based on its narrow profile when tested in the combined Nanosyn and TSA panels, GW296115 was included in the recently released Kinase Chemogenomic Set (KCGS)[15]. All of the data presented in the Introduction section was collected prior to the inclusion of GW296115 in KCGS and everything that follows has been subsequently generated. Since its inclusion in PKIS and more recently KCGS, we have carried out a broader round of screening at DiscoverX. This profiling data has not been previously released and is reported here for the first time. GW296115 was profiled against 403 wild type human kinases at 1 μM using the DiscoverX scanMAX screening platform, which employs an active site-directed competition binding assay to quantitatively measure interactions between test compounds and kinases, [16]. GW296115 inhibited 25 kinases > 90% at 1 μM, resulting in a selectivity index (S10) of 0.062 at 1 μM (Table S2, Fig. 1C)[17].
# (§2) The scanMAX assays were performed at Eurofins DiscoverX Corporation as previously described.
# GAK = biological target: T2, GAK (Homo sapiens, UniProt O14976); experiment: DiscoverX scanMAX competition binding assay
# T2 construct: purchased Eurofins DiscoverX (scanMAX) / Eurofins enzymatic assays
# Excerpt: as §1, §2
# MAP3K19 = biological target: T3, MAP3K19 (Homo sapiens, UniProt Q56UN5); experiment: DiscoverX scanMAX competition binding assay
# T3 construct: purchased Eurofins DiscoverX (scanMAX) / Eurofins enzymatic assays
# Excerpt: as §1, §2
# MYLK3/caMLCK = biological target: T4, MYLK3/caMLCK (Homo sapiens, UniProt Q32MK0); experiment: DiscoverX scanMAX competition binding assay
# T4 construct: purchased Eurofins DiscoverX Corporation
# Excerpt: as §1, §2
# RIOK3 = biological target: T5, RIOK3 (Homo sapiens, UniProt O14730); experiment: DiscoverX scanMAX competition binding assay
# T5 construct: purchased Eurofins DiscoverX (scanMAX) / Eurofins enzymatic assays
# Excerpt: as §1, §2
# PDGFRβ = system: PDGFRβ; design: method as in PMID 26501955; conditions: cited from earlier work
# PRKAA2 = system: PRKAA2; design: method as in earlier work; conditions: cited from earlier work
# BRSK1 = biological target: T6, BRSK1 (Homo sapiens, UniProt Q8TDC3); design: purchased Eurofins DiscoverX Corporation; method as in earlier work; conditions: cited from earlier work
# T6 sequence (Q8TDC3 1-778): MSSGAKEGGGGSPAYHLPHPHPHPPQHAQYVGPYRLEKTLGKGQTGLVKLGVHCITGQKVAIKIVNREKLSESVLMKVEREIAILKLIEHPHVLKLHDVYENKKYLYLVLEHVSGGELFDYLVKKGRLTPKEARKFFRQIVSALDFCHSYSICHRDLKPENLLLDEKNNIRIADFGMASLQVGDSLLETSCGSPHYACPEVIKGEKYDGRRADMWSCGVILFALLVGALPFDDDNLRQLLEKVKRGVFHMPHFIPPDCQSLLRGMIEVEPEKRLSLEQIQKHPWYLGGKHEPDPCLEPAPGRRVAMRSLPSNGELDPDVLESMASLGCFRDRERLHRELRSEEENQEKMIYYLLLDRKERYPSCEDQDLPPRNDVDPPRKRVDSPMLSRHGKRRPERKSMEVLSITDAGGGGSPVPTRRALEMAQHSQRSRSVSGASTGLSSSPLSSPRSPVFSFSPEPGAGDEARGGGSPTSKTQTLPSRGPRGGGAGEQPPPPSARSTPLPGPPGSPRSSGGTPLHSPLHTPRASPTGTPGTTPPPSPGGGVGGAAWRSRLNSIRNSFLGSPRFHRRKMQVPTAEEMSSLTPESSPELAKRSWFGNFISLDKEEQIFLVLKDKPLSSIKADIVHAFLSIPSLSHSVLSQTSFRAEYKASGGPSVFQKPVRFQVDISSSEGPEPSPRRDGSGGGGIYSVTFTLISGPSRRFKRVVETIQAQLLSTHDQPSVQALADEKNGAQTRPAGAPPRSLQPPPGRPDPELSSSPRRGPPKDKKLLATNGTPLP
# BRSK2 = biological target: T7, BRSK2 (Homo sapiens, UniProt Q8IWQ3); design: purchased Eurofins DiscoverX Corporation; method as in earlier work; conditions: cited from earlier work
# T7 sequence (Q8IWQ3 1-736): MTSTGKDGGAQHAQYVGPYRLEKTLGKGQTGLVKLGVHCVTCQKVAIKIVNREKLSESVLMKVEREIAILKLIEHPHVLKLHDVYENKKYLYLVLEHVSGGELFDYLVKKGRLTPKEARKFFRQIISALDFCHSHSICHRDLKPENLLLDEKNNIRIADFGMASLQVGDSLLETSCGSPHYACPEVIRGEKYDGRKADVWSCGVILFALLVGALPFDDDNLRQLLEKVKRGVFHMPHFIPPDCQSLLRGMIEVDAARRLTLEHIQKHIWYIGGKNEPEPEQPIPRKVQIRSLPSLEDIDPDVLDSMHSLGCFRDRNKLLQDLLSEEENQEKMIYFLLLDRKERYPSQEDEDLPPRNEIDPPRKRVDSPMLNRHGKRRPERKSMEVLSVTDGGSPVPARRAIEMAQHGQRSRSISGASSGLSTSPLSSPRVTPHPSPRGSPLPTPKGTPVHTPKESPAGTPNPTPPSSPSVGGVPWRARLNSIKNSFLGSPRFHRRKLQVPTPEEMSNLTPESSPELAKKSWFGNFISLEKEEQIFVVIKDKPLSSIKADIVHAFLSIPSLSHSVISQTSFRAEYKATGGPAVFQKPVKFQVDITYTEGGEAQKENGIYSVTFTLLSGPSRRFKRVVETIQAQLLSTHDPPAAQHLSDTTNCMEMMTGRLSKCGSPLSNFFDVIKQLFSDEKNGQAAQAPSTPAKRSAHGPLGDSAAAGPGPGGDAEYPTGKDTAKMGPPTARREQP
# PIM2 = PIM2 (Homo sapiens, UniProt Q9P1W9); design: purchased Eurofins DiscoverX Corporation; method as in earlier work; conditions: cited from earlier work
# FLT3 = FLT3 (Homo sapiens, UniProt P36888); experiment: DiscoverX scanMAX competition binding assay; design: purchased Eurofins DiscoverX (scanMAX) / Eurofins enzymatic assays
# Excerpt: as §1, §2
# PLK4 = PLK4 (Homo sapiens, UniProt O00444); experiment: DiscoverX scanMAX competition binding assay; design: purchased Eurofins DiscoverX (scanMAX) / Eurofins enzymatic assays
# Excerpt: as §1, §2
# T3 sequence (Q56UN5 whole entry): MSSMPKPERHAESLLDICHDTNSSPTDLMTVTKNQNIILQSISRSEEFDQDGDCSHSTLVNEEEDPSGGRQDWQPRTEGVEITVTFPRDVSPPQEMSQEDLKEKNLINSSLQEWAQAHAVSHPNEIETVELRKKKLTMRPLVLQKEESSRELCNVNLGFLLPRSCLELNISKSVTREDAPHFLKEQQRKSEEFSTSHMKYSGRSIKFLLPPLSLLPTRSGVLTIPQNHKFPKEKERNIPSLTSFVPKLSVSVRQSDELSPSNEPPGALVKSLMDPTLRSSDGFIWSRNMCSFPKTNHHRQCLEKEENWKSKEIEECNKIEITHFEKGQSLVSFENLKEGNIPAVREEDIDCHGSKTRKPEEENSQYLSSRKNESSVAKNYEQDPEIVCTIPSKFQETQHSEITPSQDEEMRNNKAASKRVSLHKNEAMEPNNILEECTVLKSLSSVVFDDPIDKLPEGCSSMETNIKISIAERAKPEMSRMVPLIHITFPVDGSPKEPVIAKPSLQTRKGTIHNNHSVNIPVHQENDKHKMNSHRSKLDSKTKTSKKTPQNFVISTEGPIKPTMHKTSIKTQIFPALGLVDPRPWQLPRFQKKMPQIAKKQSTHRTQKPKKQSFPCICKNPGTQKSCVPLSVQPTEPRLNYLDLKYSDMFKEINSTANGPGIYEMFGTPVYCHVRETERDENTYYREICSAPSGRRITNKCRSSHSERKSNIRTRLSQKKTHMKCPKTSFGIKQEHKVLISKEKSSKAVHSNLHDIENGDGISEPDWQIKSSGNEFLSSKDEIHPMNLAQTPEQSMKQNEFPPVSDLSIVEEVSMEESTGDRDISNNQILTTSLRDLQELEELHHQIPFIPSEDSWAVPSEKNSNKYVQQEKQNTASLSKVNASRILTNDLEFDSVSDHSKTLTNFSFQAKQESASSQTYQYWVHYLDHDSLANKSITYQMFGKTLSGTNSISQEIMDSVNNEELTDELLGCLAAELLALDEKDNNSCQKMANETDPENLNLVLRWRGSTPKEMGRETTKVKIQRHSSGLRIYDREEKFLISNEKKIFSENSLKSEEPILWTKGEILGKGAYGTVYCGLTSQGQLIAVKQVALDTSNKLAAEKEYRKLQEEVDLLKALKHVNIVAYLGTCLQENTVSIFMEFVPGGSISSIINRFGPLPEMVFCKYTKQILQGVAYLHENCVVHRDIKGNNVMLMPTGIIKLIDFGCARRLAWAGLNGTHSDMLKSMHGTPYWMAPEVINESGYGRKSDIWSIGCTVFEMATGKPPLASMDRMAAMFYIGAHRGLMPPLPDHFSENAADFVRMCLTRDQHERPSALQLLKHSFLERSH
# T4 sequence (Q32MK0 whole entry): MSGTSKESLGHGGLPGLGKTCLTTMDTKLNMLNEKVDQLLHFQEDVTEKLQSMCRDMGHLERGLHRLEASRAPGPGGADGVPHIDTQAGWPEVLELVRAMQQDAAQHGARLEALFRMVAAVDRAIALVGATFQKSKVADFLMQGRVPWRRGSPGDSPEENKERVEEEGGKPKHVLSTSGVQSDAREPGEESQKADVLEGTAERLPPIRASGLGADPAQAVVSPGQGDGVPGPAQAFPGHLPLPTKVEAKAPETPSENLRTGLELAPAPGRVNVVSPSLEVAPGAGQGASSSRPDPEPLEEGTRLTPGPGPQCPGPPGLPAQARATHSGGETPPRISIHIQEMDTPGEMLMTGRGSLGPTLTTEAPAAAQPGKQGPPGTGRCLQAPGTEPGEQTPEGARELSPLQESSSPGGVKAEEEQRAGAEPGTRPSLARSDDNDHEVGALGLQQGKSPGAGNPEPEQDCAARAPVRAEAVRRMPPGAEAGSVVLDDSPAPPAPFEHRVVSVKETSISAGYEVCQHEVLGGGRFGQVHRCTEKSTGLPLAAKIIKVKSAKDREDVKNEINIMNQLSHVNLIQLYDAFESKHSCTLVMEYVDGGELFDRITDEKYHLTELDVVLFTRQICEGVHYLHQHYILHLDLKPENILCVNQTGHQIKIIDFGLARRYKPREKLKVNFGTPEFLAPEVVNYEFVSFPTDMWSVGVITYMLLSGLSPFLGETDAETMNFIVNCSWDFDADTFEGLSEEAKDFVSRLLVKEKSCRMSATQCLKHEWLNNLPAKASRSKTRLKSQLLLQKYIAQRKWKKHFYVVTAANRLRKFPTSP
# T2 sequence (O14976 whole entry): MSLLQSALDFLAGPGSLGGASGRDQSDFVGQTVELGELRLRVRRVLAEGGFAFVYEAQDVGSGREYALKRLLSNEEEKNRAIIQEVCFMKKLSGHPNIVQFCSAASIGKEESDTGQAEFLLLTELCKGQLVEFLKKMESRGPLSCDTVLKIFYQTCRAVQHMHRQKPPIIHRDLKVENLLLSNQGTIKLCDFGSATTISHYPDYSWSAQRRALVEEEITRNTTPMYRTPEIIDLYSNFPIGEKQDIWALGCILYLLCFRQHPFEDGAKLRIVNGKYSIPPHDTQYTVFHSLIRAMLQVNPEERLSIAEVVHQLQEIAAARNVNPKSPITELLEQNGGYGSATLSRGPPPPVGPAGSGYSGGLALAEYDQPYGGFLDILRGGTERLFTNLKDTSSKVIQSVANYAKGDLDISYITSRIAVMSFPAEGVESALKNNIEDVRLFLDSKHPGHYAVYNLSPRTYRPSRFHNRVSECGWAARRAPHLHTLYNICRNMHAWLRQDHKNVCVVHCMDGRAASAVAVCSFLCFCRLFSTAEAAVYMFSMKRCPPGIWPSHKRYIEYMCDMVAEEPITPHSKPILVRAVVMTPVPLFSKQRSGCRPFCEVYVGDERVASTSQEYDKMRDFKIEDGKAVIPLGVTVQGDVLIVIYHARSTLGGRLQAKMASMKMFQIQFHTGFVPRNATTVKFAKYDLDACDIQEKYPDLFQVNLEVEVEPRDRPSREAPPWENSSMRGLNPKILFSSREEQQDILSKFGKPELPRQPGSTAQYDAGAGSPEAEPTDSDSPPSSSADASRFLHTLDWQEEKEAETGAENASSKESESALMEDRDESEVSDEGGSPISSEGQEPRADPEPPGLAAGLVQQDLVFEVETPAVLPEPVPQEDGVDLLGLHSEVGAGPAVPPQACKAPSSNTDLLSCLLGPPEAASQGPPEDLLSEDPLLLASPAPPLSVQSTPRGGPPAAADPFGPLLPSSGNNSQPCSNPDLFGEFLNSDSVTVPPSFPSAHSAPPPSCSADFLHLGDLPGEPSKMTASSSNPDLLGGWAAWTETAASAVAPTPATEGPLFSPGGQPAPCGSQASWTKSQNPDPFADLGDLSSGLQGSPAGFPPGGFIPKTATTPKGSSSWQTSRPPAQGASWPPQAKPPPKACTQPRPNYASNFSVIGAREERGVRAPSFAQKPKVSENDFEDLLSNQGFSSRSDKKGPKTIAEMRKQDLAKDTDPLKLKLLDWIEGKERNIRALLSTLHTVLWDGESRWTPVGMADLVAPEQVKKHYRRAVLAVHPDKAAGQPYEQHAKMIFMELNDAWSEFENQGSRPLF
# FLT3, sequence (P36888 27-993): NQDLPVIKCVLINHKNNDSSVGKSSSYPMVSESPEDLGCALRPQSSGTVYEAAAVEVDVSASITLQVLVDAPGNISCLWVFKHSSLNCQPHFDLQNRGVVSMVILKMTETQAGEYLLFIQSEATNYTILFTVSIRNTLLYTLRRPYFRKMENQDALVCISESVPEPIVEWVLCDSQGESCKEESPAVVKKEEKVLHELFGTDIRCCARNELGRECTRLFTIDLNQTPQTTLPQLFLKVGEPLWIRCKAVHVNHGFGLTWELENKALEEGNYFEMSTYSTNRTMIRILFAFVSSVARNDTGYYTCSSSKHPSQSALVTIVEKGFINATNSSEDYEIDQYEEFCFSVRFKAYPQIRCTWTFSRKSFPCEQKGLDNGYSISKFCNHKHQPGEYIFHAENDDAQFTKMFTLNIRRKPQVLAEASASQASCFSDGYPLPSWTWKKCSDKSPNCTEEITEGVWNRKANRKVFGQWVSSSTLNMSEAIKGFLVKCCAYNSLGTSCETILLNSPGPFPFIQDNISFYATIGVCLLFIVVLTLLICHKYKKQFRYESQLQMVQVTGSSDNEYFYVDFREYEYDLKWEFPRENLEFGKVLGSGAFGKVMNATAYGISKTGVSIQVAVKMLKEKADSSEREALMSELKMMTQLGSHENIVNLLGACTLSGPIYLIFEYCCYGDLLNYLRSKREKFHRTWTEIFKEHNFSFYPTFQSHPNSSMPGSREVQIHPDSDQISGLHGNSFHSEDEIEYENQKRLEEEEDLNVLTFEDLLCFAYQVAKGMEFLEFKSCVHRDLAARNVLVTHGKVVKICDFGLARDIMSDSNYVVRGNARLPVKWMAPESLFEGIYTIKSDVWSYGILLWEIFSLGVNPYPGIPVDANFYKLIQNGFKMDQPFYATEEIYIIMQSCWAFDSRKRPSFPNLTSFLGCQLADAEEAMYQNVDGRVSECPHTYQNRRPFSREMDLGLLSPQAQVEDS
# PIM2, sequence (Q9P1W9 whole entry): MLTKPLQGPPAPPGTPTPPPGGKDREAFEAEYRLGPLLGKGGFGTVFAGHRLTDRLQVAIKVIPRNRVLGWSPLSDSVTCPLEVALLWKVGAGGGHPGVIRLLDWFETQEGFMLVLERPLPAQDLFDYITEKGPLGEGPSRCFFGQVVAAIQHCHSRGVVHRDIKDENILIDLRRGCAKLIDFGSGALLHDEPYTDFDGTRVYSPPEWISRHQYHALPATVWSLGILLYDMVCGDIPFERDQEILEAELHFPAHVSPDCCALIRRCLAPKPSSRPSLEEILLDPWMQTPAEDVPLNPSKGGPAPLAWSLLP
smiles,measurement,setting,value
COc1ccc2[nH]c3c4[nH]c5ccc(OC)cc5c4c4c(c3c2c1)C(=O)NC4=O [GW296115],inhibition at 1 µM,EPHB6,85%
same,inhibition at 1 µM,GAK,96.7%
same,inhibition at 1 µM,MAP3K19,100%
same,inhibition at 1 µM,MYLK3/caMLCK,80%
same,inhibition at 1 µM,RIOK3,89%
same,Nanosyn % Inhibition at 1 μM,PDGFRβ,85%
same,TSA ΔTm at 10 μM (°C),PRKAA2,10.6 °C
same,Nanosyn % Inhibition at 1 μM,BRSK1,102%
same,Nanosyn % Inhibition at 1 μM,BRSK2,95%
same,Nanosyn % Inhibition at 1 μM,PIM2,68%
same,inhibition at 1 µM,FLT3,91.5%
same,inhibition at 1 µM,PLK4,99.5%
